The test system of data set [1] is Jurkat T cells. Kind of data set: Antiproliferative screening at 10 μM, MTS assay. It counts as cell-based, human. The settings on record: for viability at 10 µM: Homo sapiens, Jurkat T cells, 72 h after treatment, MTS, mean of three independent experiments, read-out: Cell viability (%); for Antiproliferative activity against Jurkat T cells (in words): screening concentration 10 μM, 72 h. The procedure:
The Jurkat T cell line was chosen for its reliability as a model for chemotherapeutic studies, particularly in T-cell leukemia.[13]
An MTS (3-(4,5-dimethylthiazol-2-yl)-5-(3-carboxymethoxyphenyl)-2-(4-sulfophenyl)-2H-tetrazolium inner salt) assay[20] was used to assess the leukemic cell viability. […] A total of 2 × 10^3 cells per 100 μL cell culture media were seeded into each well of a 96-well plate and incubated for 24 h. Then, tested compounds or reference drugs [6-mercaptopurine (Merck Millipore, Germany), methotrexate (Merck Millipore, Germany) and cytarabine (Merck Millipore, Germany)] were added, followed by incubation for 72 h. […] The absorbance in each well was measured at 490 nm using a microplate reader (Tecan NanoQuant Infinite M200 Pro, Austria). The percentage of cell viability was estimated by comparing absorbance in wells with the treated and untreated (vehicle control) cells using the following formula: ODtreated/ODuntreated × 100%. All experiments were performed in triplicate and repeated in three independent experiments. The GI50 values were calculated using sigmoidal concentration-response curves generated by the GraphPad Prism 8 program.[21]
On the technique in general: Formazan colour is commonly taken as a measure of viable cells.

Data set [2] relates to Jurkat T cells. Kind of data set: Inhibition of Jurkat T cell growth (GI50), MTS assay. It counts as cell-based. The settings on record: Homo sapiens. The procedure:
These compounds were selected for further testing to estimate their 50% growth inhibition (GI50) value. Standard antileukemic drugs mercaptopurine, methotrexate and cytarabine were chosen as positive controls.
An MTS (3-(4,5-dimethylthiazol-2-yl)-5-(3-carboxymethoxyphenyl)-2-(4-sulfophenyl)-2H-tetrazolium inner salt) assay[20] was used to assess the leukemic cell viability. Jurkat T cells (human leukemic T cell, clone E6-1) from American Type Culture Collection (ATCC) were cultured in RPMI-1640 medium (Nacalai Tesque, Japan) supplemented with 10% v/v fetal bovine serum (FBS) (Biosera, France). The cells were maintained at 37 °C in a humidified 5% CO2 incubator (Thermo Fisher, USA). A total of 2 × 10^3 cells per 100 μL cell culture media were seeded into each well of a 96-well plate and incubated for 24 h. Then, tested compounds or reference drugs [6-mercaptopurine (Merck Millipore, Germany), methotrexate (Merck Millipore, Germany) and cytarabine (Merck Millipore, Germany)] were added, followed by incubation for 72 h. After that, a mixture of MTS (Sigma Aldrich, USA) and phenazine methosulfate (PMS) (Nacalai Tesque, Japan) were added to each well, followed by another incubation for 1 h to 4 h at 37 °C. The absorbance in each well was measured at 490 nm using a microplate reader (Tecan NanoQuant Infinite M200 Pro, Austria). The percentage of cell viability was estimated by comparing absorbance in wells with the treated and untreated (vehicle control) cells using the following formula: ODtreated/ODuntreated × 100%. All experiments were performed in triplicate and repeated in three independent experiments. The GI50 values were calculated using sigmoidal concentration-response curves generated by the GraphPad Prism 8 program.[21]

Where [3] appears, read: GI50 against Jurkat T cells converted to negative logarithmic scale, read-out: Experimental pGI50 (converted).
[4] abbreviates: concentration required to inhibit Jurkat T cell growth by 50%, 72 h, MTS, mean of three independent experiments, read-out: GI50 ± SEM.

Where two headings read alike, the source gives them in different places.

As usually defined, the viability is a read-out of living cells in per cent, often relative to untreated cells. A word on the melting point: it is the temperature, or range, at which the solid turns liquid. On to `Nc1nc(-c2cccs2)nc(N2CCc3ccccc32)n1` [9{7,18}, 4-(Indolin-1-yl)-6-(2-thienyl)-1,3,5-triazine-2-amine], for which the melting point lay in the range of 163 to 164 °C. For the same compound, the viability at 10 µM in the data set on Jurkat T cells [1] is 20%. For the same compound, in the data set with Jurkat T cells [2] (setting [3]), the GI50 is 6.03 µM. Further, the GI50 with Jurkat T cells [2] (setting [4]) was 6.03 ± 0.64 µM.
The compound `Cc1cccc(-c2nc(N)nc(N3CCc4ccccc4C3)n2)c1` [9{6,5}, 6-(3-Methylphenyl)-4-(3,4-dihydroisoquinolin-2(1H)-yl)-1,3,5-triazine-2-amine] returned a melting point of 145 to 146 °C. In addition, the viability at 10 µM in the data set with Jurkat T cells [1] is 2%. Also, the GI50 with Jurkat T cells [2] (setting [3]) is 1.15 µM. Also, the GI50 with Jurkat T cells [2] (setting [4]) stood at 1.14 ± 0.13 µM.
Turning to `CC1CCN(c2nc(N)nc(-c3cccs3)n2)CC1` [9{3,18}, 4-(4-Methylpiperidino)-6-(2-thienyl)-1,3,5-triazine-2-amine], the melting point was in the range of 155 to 156 °C. Also, the viability at 10 µM in the data set on Jurkat T cells [1] was determined as 35%. Moreover, the GI50 in the data set on Jurkat T cells [2] (setting [3]) is 28.2 µM. Also, the GI50 with Jurkat T cells [2] (setting [4]) came to 28.2 ± 1.03 µM.
In turn, `CC(C)(C)c1ccc(-c2nc(N)nc(N3CCc4ccccc4C3)n2)cc1` [9{6,7}, 6-[4-(tert-Butyl)phenyl]-4-(3,4-dihydroisoquinolin-2(1H)-yl)-1,3,5-triazine-2-amine] had a melting point of 162 to 164 °C. Moreover, the viability at 10 µM with Jurkat T cells [1] worked out at 1%. Further, the GI50 in the data set on Jurkat T cells [2] (setting [3]) is 2.45 µM. Besides, the GI50 with Jurkat T cells [2] (setting [4]) came out at 2.43 ± 0.57 µM.
`Nc1nc(-c2ccc(OCc3ccccc3)cc2)nc(N2CCc3ccccc32)n1` [9{7,15}, 6-(4-(Benzyloxy)phenyl)-4-(indolin-1-yl)-1,3,5-triazine-2-amine] showed a melting point of 188 to 189 °C. In addition, the viability at 10 µM in the data set on Jurkat T cells [1] was found to be 32%. The GI50 in the data set on Jurkat T cells [2] (setting [3]) was 22.9 µM. Besides, in the data set with Jurkat T cells [2] (setting [4]), the GI50 stood at 23.07 ± 0.08 µM.
Take `CN(C)c1ccc(-c2nc(N)nc(N3CCc4ccccc43)n2)cc1` [9{7,8}, 6-[4-(N,N-Dimethylamino)phenyl]-4-(indolin-1-yl)-1,3,5-triazine-2-amine]: the melting point lay in the range of 226 to 227 °C. Further, in the data set on Jurkat T cells [1], the viability at 10 µM was 30%. Further, in the data set with Jurkat T cells [2] (setting [3]), the GI50 was 2.14 µM. Moreover, the GI50 in the data set on Jurkat T cells [2] (setting [4]) amounted to 2.12 ± 0.97 µM.
In the case of `COc1cc(-c2nc(N)nc(N3CCc4ccccc43)n2)cc(OC)c1OC` [9{7,17}, 6-(3,4,5-Trimethoxyphenyl)-4-(indolin-1-yl)-1,3,5-triazine-2-amine], the melting point was 199 to 200 °C. Besides, in the data set on Jurkat T cells [1], the viability at 10 µM was 10%. Moreover, the GI50 in the data set with Jurkat T cells [2] (setting [3]) is 6.76 µM. Besides, the GI50 in the data set on Jurkat T cells [2] (setting [4]) stood at 6.73 ± 0.43 µM.
Turning to `COc1ccc(-c2nc(N)nc(N3CCc4ccccc4C3)n2)cc1` [9{6,9}, 6-(4-Methoxyphenyl)-4-(3,4-dihydroisoquinolin-2(1H)-yl)-1,3,5-triazine-2-amine], the melting point fell in the range of 165 to 166 °C. Moreover, in the data set with Jurkat T cells [1], the viability at 10 µM turned out to be 14%. Also, in the data set with Jurkat T cells [2] (setting [3]), the GI50 was 29.5 µM. In addition, the GI50 in the data set with Jurkat T cells [2] (setting [4]) was found to be 29.6 ± 2.2 µM.
The corresponding values for `Nc1nc(-c2ccc(C(F)(F)F)cc2)nc(N2CCc3ccccc3C2)n1` [9{6,11}, 6-[4-(Trifluoromethyl)phenyl]-4-(3,4-dihydroisoquinolin-2(1H)-yl)-1,3,5-triazine-2-amine] are 181 to 182 °C, 3%, 3.24 µM and 3.23 ± 0.16 µM.
The compound `Nc1nc(-c2cccc(Oc3ccccc3)c2)nc(N2CCc3ccccc3C2)n1` [9{6,13}, 4-(3,4-Dihydroisoquinolin-2(1H)-yl)-6-(3-phenoxyphenyl)-1,3,5-triazine-2-amine] gave a melting point of 128 to 129 °C. Also, the viability at 10 µM with Jurkat T cells [1] turned out to be 4%. For the same compound, the GI50 with Jurkat T cells [2] (setting [3]) is 1.55 µM. Also, in the data set on Jurkat T cells [2] (setting [4]), the GI50 was determined as 1.54 ± 0.66 µM.
Take `Nc1nc(-c2cccc(OCc3ccccc3)c2)nc(N2CCCCC2)n1` [9{2,14}, 6-[3-(Benzyloxy)phenyl]-4-piperidino-1,3,5-triazine-2-amine]: the melting point lay in the range of 157 to 158 °C. In the data set on Jurkat T cells [1], the viability at 10 µM was 8% and the “Antiproliferative activity against Jurkat T cells (in words)” value (shortened to “Antiproliferative activity”) is listed as “effectively inhibited Jurkat T cell growth”. In addition, the GI50 in the data set on Jurkat T cells [2] (setting [3]) was 7.76 µM. Further, the GI50 in the data set on Jurkat T cells [2] (setting [4]) is 7.68 ± 0.11 µM.
In the case of `Cc1ccc(-c2nc(N)nc(N3CCc4ccccc4C3)n2)cc1` [9{6,6}, 6-(4-Methylphenyl)-4-(3,4-dihydroisoquinolin-2(1H)-yl)-1,3,5-triazine-2-amine], the melting point was in the range of 166 to 167 °C. The viability at 10 µM with Jurkat T cells [1] is 4%. Besides, the GI50 in the data set with Jurkat T cells [2] (setting [3]) was 1.78 µM. In addition, the GI50 in the data set on Jurkat T cells [2] (setting [4]) was 1.79 ± 0.58 µM.
Compound `COc1ccc(-c2nc(N)nc(N3CCc4ccccc4C3)n2)cc1OC` [9{6,16}, 6-(3,4-Dimethoxyphenyl)-4-(3,4-dihydroisoquinolin-2(1H)-yl)-1,3,5-triazin-2-amine] returned a melting point of 159 to 160 °C. Also, the viability at 10 µM with Jurkat T cells [1] was 23%. Besides, the GI50 in the data set on Jurkat T cells [2] (setting [3]) was 11.7 µM. In addition, the GI50 in the data set on Jurkat T cells [2] (setting [4]) was 11.6 ± 2.12 µM.
Compound `Nc1nc(-c2ccc(OC(F)(F)F)cc2)nc(N2CCCCC2)n1` [9{2,12}, 6-[4-(Trifluoromethoxy)phenyl]-4-piperidino-1,3,5-triazine-2-amine] yielded a melting point of 136 to 137 °C. For the same compound, in the data set with Jurkat T cells [1], the viability at 10 µM was 12% and the “Antiproliferative activity” value is “effectively inhibited Jurkat T cell growth”. The GI50 with Jurkat T cells [2] (setting [3]) was 10.7 µM. Further, the GI50 in the data set with Jurkat T cells [2] (setting [4]) stood at 10.8 ± 0.13 µM.
Compound `Nc1nc(-c2ccc(OC(F)(F)F)cc2)nc(N2CCc3ccccc3C2)n1` [9{6,12}, 6-[4-(Trifluoromethoxy)phenyl]-4-(3,4-dihydroisoquinolin-2(1H)-yl)-1,3,5-triazine-2-amine] showed a melting point of 119 to 120 °C. In the data set on Jurkat T cells [1], the viability at 10 µM turned out to be 3%. Further, the GI50 with Jurkat T cells [2] (setting [3]) was 1.17 µM. Besides, the GI50 with Jurkat T cells [2] (setting [4]) was 1.18 ± 0.22 µM.
Take `CC1CCN(c2nc(N)nc(-c3ccc(OC(F)(F)F)cc3)n2)CC1` [9{3,12}, 6-[4-(Trifluoromethoxy)phenyl]-4-(4-methylpiperidino)-1,3,5-triazine-2-amine]: the melting point is 152 to 153 °C. In addition, in the data set on Jurkat T cells [1], the viability at 10 µM was found to be 5% and the “Antiproliferative activity” value was “effectively inhibited Jurkat T cell growth”. For the same compound, in the data set on Jurkat T cells [2] (setting [3]), the GI50 is 3.24 µM. Besides, in the data set on Jurkat T cells [2] (setting [4]), the GI50 was found to be 3.23 ± 0.88 µM.
As to `CC1CCN(c2nc(N)nc(-c3ccc(C(F)(F)F)cc3)n2)CC1` [9{3,11}, 6-[4-(Trifluoromethyl)phenyl]-4-(4-methylpiperidino)-1,3,5-triazine-2-amine], the melting point fell in the range of 170 to 171 °C. Moreover, in the data set with Jurkat T cells [1], the viability at 10 µM was 11% and the “Antiproliferative activity” value is “effectively inhibited Jurkat T cell growth”. For the same compound, in the data set on Jurkat T cells [2] (setting [3]), the GI50 is 4.47 µM. Further, in the data set on Jurkat T cells [2] (setting [4]), the GI50 was determined as 4.51 ± 0.15 µM.
On to `Nc1nc(-c2ccc(Cl)cc2)nc(N2CCc3ccccc3C2)n1` [9{6,4}, 6-(4-Chlorophenyl)-4-(3,4-dihydroisoquinolin-2(1H)-yl)-1,3,5-triazine-2-amine], for which the melting point was 183 to 184 °C. In the data set with Jurkat T cells [1], the viability at 10 µM came out at 2%. For the same compound, the GI50 in the data set on Jurkat T cells [2] (setting [3]) was 3.31 µM. Also, the GI50 in the data set with Jurkat T cells [2] (setting [4]) was found to be 3.3 ± 0.65 µM.
In the case of `Nc1nc(-c2ccc(F)cc2)nc(N2CCc3ccccc32)n1` [9{7,3}, 6-(4-Fluorophenyl)-4-(indolin-1-yl)-1,3,5-triazine-2-amine], the melting point fell in the range of 195 to 196 °C. Further, in the data set with Jurkat T cells [1], the viability at 10 µM was determined as 35%. Further, the GI50 with Jurkat T cells [2] (setting [3]) is 1.91 µM. Also, the GI50 in the data set on Jurkat T cells [2] (setting [4]) is 1.89 ± 0.48 µM.

(Values after publication PMC10925993, “6-Aryl-4-cycloamino-1,3,5-triazine-2-amines: synthesis, antileukemic activity, and 3D-QSAR modelling” (RSC Advances, 2024).)
